Results from ChEMBL document CHEMBL5360555, “Structure-based discovery of novel α-aminoketone derivatives as dual p53-MDM2/MDMX inhibitors for the treatment of cancer” (Eur J Med Chem, 2023).

Columns and labels:
[1] = target: E3 ubiquitin-protein ligase Mdm2 (Homo sapiens, UniProt Q00987); assay: Binding affinity to MDM2 (1 to 118 residues) (unknown origin) assessed as inhibition constant incubated for 1 hr measured by fluorescence polarization assay
[2] = system: HCT-116; assay: Antiproliferative activity against human HCT-116 cells overexpressing MDM2 assessed as cell growth inhibition incubated for 72 hrs by CCK-8 assay; format: functional, cell-based; settings: HCT-116, 72 h
[3] = system: SH-SY5Y; assay: Antiproliferative activity against human SH-SY5Y cells overexpressing MDMX assessed as cell growth inhibition incubated for 72 hrs by CCK-8 assay; format: functional, cell-based
[4] = Antiproliferative activity against human HCT116-p53-null cells overexpressing MDMX assessed as cell growth inhibition incubated for 72 hrs by CCK-8 assay; format: functional, cell-based
[5] = system: SJSA-1; assay: Antiproliferative activity against human SJSA-1 cells overexpressing MDM2 assessed as cell growth inhibition incubated for 72 hrs by CCK-8 assay; format: functional, cell-based; settings: SJSA-1, 72 h
[6] = system: HCT-116; assay: Antiproliferative activity against human HCT-116 cells overexpressing MDM2 assessed as cell growth inhibition incubated at 10 uM for 72 hrs by CCK-8 assay relative to control; format: functional
[7] = system: SH-SY5Y; assay: Antiproliferative activity against human SH-SY5Y cells overexpressing MDMX assessed as cell growth inhibition incubated at 10 uM for 72 hrs by CCK-8 assay relative to control; format: functional
[8] = target: T1, Protein Mdm4 (Homo sapiens, UniProt O15151); assay: Binding affinity to MDMX (1 to 118 residues) (unknown origin) assessed as inhibition constant incubated for 1 hr measured by fluorescence polarization assay
T1 sequence (O15151 whole entry): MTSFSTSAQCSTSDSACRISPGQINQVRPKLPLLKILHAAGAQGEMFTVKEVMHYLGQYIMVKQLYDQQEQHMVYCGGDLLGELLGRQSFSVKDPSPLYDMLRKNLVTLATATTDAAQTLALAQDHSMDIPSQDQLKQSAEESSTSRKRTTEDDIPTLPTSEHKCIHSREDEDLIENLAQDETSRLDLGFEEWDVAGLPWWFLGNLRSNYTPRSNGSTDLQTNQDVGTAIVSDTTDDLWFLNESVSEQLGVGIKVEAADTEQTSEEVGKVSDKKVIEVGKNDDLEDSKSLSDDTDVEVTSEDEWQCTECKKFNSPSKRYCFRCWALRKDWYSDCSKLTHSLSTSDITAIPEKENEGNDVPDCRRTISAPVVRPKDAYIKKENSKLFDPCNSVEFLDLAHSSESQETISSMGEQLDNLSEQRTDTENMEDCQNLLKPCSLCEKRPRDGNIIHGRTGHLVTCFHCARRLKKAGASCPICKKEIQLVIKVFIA

E3 ubiquitin-protein ligase Mdm2, sequence (Q00987 whole entry, the tested form may be a part): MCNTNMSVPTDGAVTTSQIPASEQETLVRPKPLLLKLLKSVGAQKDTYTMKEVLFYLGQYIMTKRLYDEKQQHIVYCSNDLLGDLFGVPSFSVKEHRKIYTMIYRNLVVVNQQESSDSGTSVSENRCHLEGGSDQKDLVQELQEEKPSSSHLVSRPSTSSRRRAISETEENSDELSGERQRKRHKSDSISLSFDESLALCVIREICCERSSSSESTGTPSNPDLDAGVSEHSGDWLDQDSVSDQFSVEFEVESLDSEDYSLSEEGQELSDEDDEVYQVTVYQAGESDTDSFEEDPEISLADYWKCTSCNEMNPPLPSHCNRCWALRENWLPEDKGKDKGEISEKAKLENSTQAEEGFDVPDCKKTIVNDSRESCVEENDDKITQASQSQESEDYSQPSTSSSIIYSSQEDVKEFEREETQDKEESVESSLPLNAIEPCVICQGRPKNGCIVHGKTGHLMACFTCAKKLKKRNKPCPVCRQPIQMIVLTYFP

SMILES	Ki [1] [µM]	IC50 [2] [µM]	IC50 [3] [µM]	IC50 [4] [µM]	IC50 [5] [µM]	inhibition at 10 µM [6] [%]	inhibition at 10 µM [7] [%]	Ki [8] [µM]
O=C(O)CCCC(=O)N(c1ccc(Cl)cc1)C(C(=O)c1ccc(Cl)cc1)c1ccc(F)cc1Cl (stereo unspecified)	0.78	10.1	11.4	29.6	9.83	–	–	–
COC(=O)CCCCC(=O)N(c1ccc(Cl)cc1)C(C(=O)c1ccc(Cl)cc1)c1ccc(F)cc1Cl (stereo unspecified)	0.82	14.1	13.7	37.2	12.3	–	–	–
COc1ccc(C(=O)C(Nc2ccc(C)cc2)c2ccc(OC)cc2)cc1 (stereo unspecified)	16.5	33	32.8	–	–	–	–	–
COc1cccc(CC(C(=O)c2ccc(Cl)cc2)C(=O)c2cc(F)ccc2F)c1 (stereo unspecified)	14.6	–	–	–	–	26.3	18.3	–
O=C(CCC(=O)N(c1ccc(Cl)cc1)C(C(=O)c1ccc(Cl)cc1)c1ccc(F)cc1Cl)NCCN1CCOCC1 (stereo unspecified)	0.56	7.69	5.44	28.4	6.74	–	–	13
Cc1cccc(CC(C(=O)c2ccc(Cl)cc2)C(=O)c2cc(F)ccc2F)c1 (stereo unspecified)	22.5	–	–	–	–	33.7	24.6	–
O=C(c1ccc(Cl)cc1)C(Nc1ccc(Cl)cc1)c1cc(F)ccc1F (stereo unspecified)	14.9	21.5	21.8	–	–	–	–	–
O=C(c1ccc(Cl)cc1)C(Nc1cc(F)cc(F)c1)c1ccc(Cl)cc1F (stereo unspecified)	2.45	13.3	13.6	–	–	–	–	–
O=C(c1ccc(Cl)cc1)C(Nc1cc(F)cc(F)c1)c1ccc(Cl)c(Cl)c1 (stereo unspecified)	6.86	13.5	13.1	–	–	–	–	–
O=C(c1ccc(Cl)cc1)C(Cc1cccc(C(F)(F)F)c1)C(=O)c1cc(F)ccc1F (stereo unspecified)	13.4	–	–	–	–	48.4	42.9	–
O=C(c1ccc(Cl)cc1)C(Nc1ccc(F)cc1)c1ccc(F)cc1Cl (stereo unspecified)	7.34	15.6	17.2	–	–	–	–	–
O=C(O)c1ccc(C(=O)N(c2ccc(Cl)cc2)C(C(=O)c2ccc(Cl)cc2)c2ccc(F)cc2Cl)cc1 (stereo unspecified)	0.32	2.26	1.03	16.8	1.95	–	–	4.22
O=C(c1ccc(Cl)cc1)C(Nc1ccc(Cl)cc1)c1ccc(F)c(Cl)c1 (stereo unspecified)	24.2	29.2	21.3	–	–	–	–	–
O=C(c1ccc(Cl)cc1)C(Cc1ccc(Cl)cc1)C(=O)c1cc(F)ccc1F (stereo unspecified)	23.5	–	–	–	–	5.64	10.9	–
O=C(c1ccc(Cl)cc1)C(Cc1cccc(F)c1)C(=O)c1cc(F)ccc1F (stereo unspecified)	12.8	–	–	–	–	14.3	18.9	–
O=C(c1ccc(F)cc1)C(Nc1ccc(Cl)cc1)c1ccc(Cl)cc1 (stereo unspecified)	12.3	18.8	15	–	–	–	–	–
COC(=O)CCC(=O)N(c1ccc(Cl)cc1)C(C(=O)c1ccc(Cl)cc1)c1ccc(F)cc1Cl (stereo unspecified)	1.39	19.6	20.8	32.4	18.9	–	–	–
O=C(O)/C=C/C(=O)N(c1ccc(Cl)cc1)C(C(=O)c1ccc(Cl)cc1)c1ccc(F)cc1Cl (stereo unspecified)	1.1	15.4	15	31.3	15.6	–	–	–
COC(=O)c1ccc(NC(=O)CCC(=O)N(c2ccc(Cl)cc2)C(C(=O)c2ccc(Cl)cc2)c2ccc(F)cc2Cl)cc1 (stereo unspecified)	0.96	14	13	23.1	13.9	–	–	29.1
COC(=O)c1ccc(C(=O)N(c2ccc(Cl)cc2)C(C(=O)c2ccc(Cl)cc2)c2ccc(F)cc2Cl)cc1 (stereo unspecified)	1.06	8.86	7.33	20.8	10.2	–	–	12.9
O=C(c1ccc(Cl)cc1)C(Cc1cc(Cl)cc(Cl)c1)C(=O)c1cc(F)ccc1F (stereo unspecified)	7.69	–	–	–	–	33.5	9.49	–
COC(=O)CCCC(=O)N(c1ccc(Cl)cc1)C(C(=O)c1ccc(Cl)cc1)c1ccc(F)cc1Cl (stereo unspecified)	1.15	16.1	14.2	28.2	14.9	–	–	–
CC(=O)N1CCN(C(=O)CCC(=O)N(c2ccc(Cl)cc2)C(C(=O)c2ccc(Cl)cc2)c2ccc(F)cc2Cl)CC1 (stereo unspecified)	0.35	4.21	4.1	26.8	3.79	–	–	7.43
Cc1cc(Cl)cc(NC(C(=O)c2ccc(Cl)cc2)c2ccc(F)c(Cl)c2)c1 (stereo unspecified)	17.4	16.4	17.5	–	–	–	–	–
CC(C)(C)OC(=O)N1CCN(C(=O)CCC(=O)N(c2ccc(Cl)cc2)C(C(=O)c2ccc(Cl)cc2)c2ccc(F)cc2Cl)CC1 (stereo unspecified)	0.73	9.98	11.8	17.4	9.47	–	–	36.8

SMILES	Ki [1] [µM]	IC50 [2] [µM]	IC50 [3] [µM]	IC50 [4] [µM]	IC50 [5] [µM]	inhibition at 10 µM [6] [%]	inhibition at 10 µM [7] [%]	Ki [8] [µM]
COc1ccc(S(=O)(=O)N(c2ccc(Cl)cc2)C(C(=O)c2ccc(Cl)cc2)c2ccc(F)cc2Cl)cc1 (stereo unspecified)	0.65	12	9.64	30.5	10.4	–	–	15.6
O=C(O)CCCCC(=O)N(c1ccc(Cl)cc1)C(C(=O)c1ccc(Cl)cc1)c1ccc(F)cc1Cl (stereo unspecified)	0.71	10.4	9.47	26.3	11.4	–	–	–
O=C(c1ccc(Cl)cc1)C(c1ccc(F)cc1Cl)N(C(=O)CCC(=O)N1CCN(CCO)CC1)c1ccc(Cl)cc1 (stereo unspecified)	0.48	3.97	4.42	15.6	4.36	–	–	11.6
O=C(c1ccc(Br)cc1)C(Nc1ccc(Cl)cc1)c1ccc(Cl)cc1 (stereo unspecified)	13.2	21.9	20.4	–	–	–	–	–
CCOc1cc(/C=C2\C(=O)N(c3ccccc3)N=C2C)cc(Cl)c1OCC(=O)OC	–	–	12.9	–	–	–	–	0.78
COC(=O)/C=C/C(=O)N(c1ccc(Cl)cc1)C(C(=O)c1ccc(Cl)cc1)c1ccc(F)cc1Cl (stereo unspecified)	1.46	18.9	19.5	37.1	17.4	–	–	–
O=C(c1ccc(Cl)cc1)C(Cc1ccc(-c2ccccc2)cc1)C(=O)c1cc(F)ccc1F (stereo unspecified)	24.5	–	–	–	–	29.9	13.2	–
O=C(c1ccc(Cl)cc1)C(Nc1ccccc1)c1ccccc1 (stereo unspecified)	18.3	> 40	> 40	–	–	–	–	–
COc1ccc(C(=O)C(Nc2ccccc2)c2ccccc2)cc1 (stereo unspecified)	25.8	> 40	> 40	–	–	–	–	–
O=C(c1ccc(Cl)cc1)C(Nc1ccc(Cl)cc1)c1cc(F)cc(F)c1 (stereo unspecified)	24.7	> 40	> 40	–	–	–	–	–
O=C(c1ccc(Cl)cc1)C(Cc1ccc(Cl)nc1)C(=O)c1cc(F)ccc1F (stereo unspecified)	15.3	–	–	–	–	39.4	20.1	–
O=C(c1ccc(Cl)cc1)C(Cc1cc2ccccc2cn1)C(=O)c1cc(F)ccc1F (stereo unspecified)	21.8	–	–	–	–	36.7	9.44	–
O=C(c1ccccc1)C(Cc1ccccc1)C(=O)c1ccccc1	25.8	–	–	–	–	11.2	9.88	–
O=C(c1ccccc1)C(Nc1ccccc1)c1ccccc1 (stereo unspecified)	38.2	> 40	> 40	–	–	–	–	–
COc1ccc(NC(C(=O)c2ccc(Cl)cc2)c2ccc(F)cc2Cl)cc1 (stereo unspecified)	27.8	30.1	29.3	–	–	–	–	–
O=C(c1ccc(Cl)cc1)C(Cc1ccsc1)C(=O)c1cc(F)ccc1F (stereo unspecified)	14	–	–	–	–	31.8	15.3	–
Cc1cc(Cl)cc(NC(C(=O)c2ccc(F)cc2)c2ccc(F)c(Cl)c2)c1 (stereo unspecified)	19.7	18.5	18.2	–	–	–	–	–
O=C(c1ccc(Cl)cc1)C(Nc1cccc(Cl)c1F)c1ccc(Cl)c(Cl)c1 (stereo unspecified)	2.13	11.1	11	–	–	–	–	–
O=C(c1ccc(Cl)cc1)C(Nc1cccc(Cl)c1)c1ccc(F)cc1Cl (stereo unspecified)	6.92	16.6	14.1	–	–	–	–	–
O=C(O)CCC(=O)N(c1ccc(Cl)cc1)C(C(=O)c1ccc(Cl)cc1)c1ccc(F)cc1Cl (stereo unspecified)	1.07	14.2	8.13	36.4	12	–	–	–
O=C(c1ccc(Cl)cc1)C(Cc1cccc(Cl)c1)C(=O)c1cc(F)ccc1F (stereo unspecified)	6.02	–	–	–	–	51.8	48.1	–
O=C(c1ccc(Cl)cc1)C(Nc1ccc(Cl)c(Cl)c1)c1ccc(Cl)c(Cl)c1 (stereo unspecified)	4.29	12.3	14.4	–	–	–	–	–
O=C(c1ccc(Cl)cc1)C(Cc1ccccc1Cl)C(=O)c1cc(F)ccc1F (stereo unspecified)	15.1	–	–	–	–	25.4	22.7	–
O=C(c1ccc(Cl)cc1)C(Nc1ccc(Cl)cc1)c1ccc(F)cc1Cl (stereo unspecified)	0.91	11.7	9.84	–	–	–	–	–
